Test results published in PMC11513893, “Discovery of Oral Degraders of the ROS1 Fusion Protein with Potent Activity against Secondary Resistance Mutations” (Journal of Medicinal Chemistry, 2024).

Legend:
INSRR = INSRR (Homo sapiens, UniProt P14616); experiment: Kinase assay; type: biochemical; settings: average of duplicate measurements
[1] = tested on: Ba/F3 CD74-ROS1 WT xenograft tumors; experiment: Mouse efficacy study, Ba/F3 CD74-ROS1 xenograft; type: in vivo; settings: NOD/SCID mice
Procedure: All the procedures related to animal handling, care, and treatment in this study were performed according to guidelines approved by the Institutional Animal Care and Use Committee (IACUC) of Xavier University of Louisiana following the guidance of the AAALAC. Ba/F3-ROS1 and Ba/F3-ROS1-G2032R cells were maintained in RPMI 1640 medium supplemented with 10% fetal bovine serum. The cells growing in an exponential growth phase were harvested and counted for tumor inoculation. Female NOD/SCID mice 6–8 weeks of age were allowed to adapt to laboratory conditions for 10 days prior to dosing and were allowed food and water ad libitum. Each mouse was inoculated subcutaneously in the right flank with Ba/F3 CD74-ROS1 or Ba/F3 SL34A2-ROS1 G2032R cells (1 × 10^6) in 0.2 mL of PBS mixed with Matrigel (50:50) for tumor development.

[2] = tested on: Ba/F3 ROS1 (SLC34A2) G2032R-F2075C; experiment: Antiproliferation assay; type: cell-based; settings: Mus musculus, BaF3; Ba/F3 cell line
Procedure: (§1) Ba/F3 immortalized murine bone marrow–derived pro-B cells were obtained from Creative Biogene (Shirley, NY) and cultured in RPMI supplemented with 10% FBS and IL3 (0.5 ng/mL). Ba/F3 cells expressing ROS1 variants were maintained in RPMI supplemented with 10% FBS and puromycin (0.7 mg/mL). Crizotinib, ceritinib, brigatinib, repotrectinib, and lorlatinib were purchased from MedChem Express. Each compound was dissolved in DMSO and serially diluted in RPMI for cell culture experiments.
(§2) To assess the 72 h effect of drug treatment on cell proliferation, 2000 to 3000 cells were plated in replicates of three in 96-well plates. The plates were placed in an incubator at 37 °C, 5% CO2 for 72 h. Following drug treatments, the cells were incubated with the Alamar Blue Assay reagent (BioRad), 5 μL each well for 4 h at 37 °C and 5% CO2. Luminescence was measured on a multiplate reader and analyzed. […] IC50 values were determined using a nonlinear regression model with a sigmoidal dose response in GraphPad. The data were collected based on triplicate experiments, and presented as mean ± SD.

[3] = tested on: Ba/F3 ROS1 (SLC34A2) F2075C-G1837E; experiment: Antiproliferation assay; type: cell-based; settings: Mus musculus, BaF3; Ba/F3 cell line
Procedure: as §1, §2

[4] = tested on: Ba/F3 ROS1 (SLC34A2) G2032R-D2113G; experiment: Antiproliferation assay; type: cell-based; settings: Mus musculus, BaF3; Ba/F3 cell line
Procedure: as §1, §2

ROS1 = ROS1 (Homo sapiens, UniProt P08922); experiment: Kinase assay; type: biochemical; settings: average of duplicate measurements
ALK = ALK (Homo sapiens, UniProt Q9UM73); experiment: Degradation assay; type: cell-based; settings: average of duplicate measurements
Procedure: (§3) However, the degradation selectivity of 9o often contrasts with its kinase binding selectivity as determined in cells treated with 9o where the kinase level was measurable by Western blot analysis. […] For example, FLT3, CHEK2, and FES, all with kinase binding at <10 nM, were only moderately or minimally degraded, if at all (Table 9).

EGFR = EGFR (Homo sapiens, UniProt P00533); experiment: Degradation assay; type: cell-based; settings: average of duplicate measurements
Chain of EGFR (P00533 25-1210, species assumed): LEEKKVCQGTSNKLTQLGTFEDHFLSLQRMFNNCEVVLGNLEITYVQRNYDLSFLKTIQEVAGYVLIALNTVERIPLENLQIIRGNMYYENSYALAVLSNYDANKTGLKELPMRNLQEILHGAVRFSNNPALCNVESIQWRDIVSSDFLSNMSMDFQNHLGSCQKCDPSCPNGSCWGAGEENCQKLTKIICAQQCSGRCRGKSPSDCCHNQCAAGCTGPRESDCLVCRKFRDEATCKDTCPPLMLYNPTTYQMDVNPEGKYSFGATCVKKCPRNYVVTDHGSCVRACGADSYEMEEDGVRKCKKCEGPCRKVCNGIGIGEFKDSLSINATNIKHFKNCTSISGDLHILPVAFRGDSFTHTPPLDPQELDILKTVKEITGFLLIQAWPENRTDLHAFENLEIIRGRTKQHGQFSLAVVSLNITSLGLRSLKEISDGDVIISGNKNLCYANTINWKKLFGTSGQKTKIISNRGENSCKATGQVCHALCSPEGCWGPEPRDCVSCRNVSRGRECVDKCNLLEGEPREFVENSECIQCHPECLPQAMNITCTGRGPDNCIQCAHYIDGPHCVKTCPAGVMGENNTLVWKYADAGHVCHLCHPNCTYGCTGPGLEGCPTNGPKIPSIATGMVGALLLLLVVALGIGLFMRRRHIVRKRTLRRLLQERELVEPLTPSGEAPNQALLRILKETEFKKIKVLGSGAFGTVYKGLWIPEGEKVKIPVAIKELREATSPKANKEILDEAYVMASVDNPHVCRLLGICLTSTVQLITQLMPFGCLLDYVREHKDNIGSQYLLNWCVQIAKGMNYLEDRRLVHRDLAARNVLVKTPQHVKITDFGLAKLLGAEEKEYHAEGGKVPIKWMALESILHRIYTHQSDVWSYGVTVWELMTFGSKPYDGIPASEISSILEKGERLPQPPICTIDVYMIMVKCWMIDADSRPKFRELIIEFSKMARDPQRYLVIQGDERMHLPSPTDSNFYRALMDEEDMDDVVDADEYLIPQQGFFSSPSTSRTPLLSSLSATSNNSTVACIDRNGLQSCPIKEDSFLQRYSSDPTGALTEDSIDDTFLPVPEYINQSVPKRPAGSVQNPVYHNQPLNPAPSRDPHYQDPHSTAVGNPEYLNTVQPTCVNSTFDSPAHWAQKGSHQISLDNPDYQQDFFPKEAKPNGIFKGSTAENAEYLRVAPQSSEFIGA
Procedure: as §3

FER = FER (Homo sapiens, UniProt P16591); experiment: Degradation assay; type: cell-based; settings: average of duplicate measurements
Procedure: as §3

RET = RET (Homo sapiens, UniProt P07949); experiment: Degradation assay; type: cell-based; settings: average of duplicate measurements
Chain of RET (P07949 29-1114, species assumed): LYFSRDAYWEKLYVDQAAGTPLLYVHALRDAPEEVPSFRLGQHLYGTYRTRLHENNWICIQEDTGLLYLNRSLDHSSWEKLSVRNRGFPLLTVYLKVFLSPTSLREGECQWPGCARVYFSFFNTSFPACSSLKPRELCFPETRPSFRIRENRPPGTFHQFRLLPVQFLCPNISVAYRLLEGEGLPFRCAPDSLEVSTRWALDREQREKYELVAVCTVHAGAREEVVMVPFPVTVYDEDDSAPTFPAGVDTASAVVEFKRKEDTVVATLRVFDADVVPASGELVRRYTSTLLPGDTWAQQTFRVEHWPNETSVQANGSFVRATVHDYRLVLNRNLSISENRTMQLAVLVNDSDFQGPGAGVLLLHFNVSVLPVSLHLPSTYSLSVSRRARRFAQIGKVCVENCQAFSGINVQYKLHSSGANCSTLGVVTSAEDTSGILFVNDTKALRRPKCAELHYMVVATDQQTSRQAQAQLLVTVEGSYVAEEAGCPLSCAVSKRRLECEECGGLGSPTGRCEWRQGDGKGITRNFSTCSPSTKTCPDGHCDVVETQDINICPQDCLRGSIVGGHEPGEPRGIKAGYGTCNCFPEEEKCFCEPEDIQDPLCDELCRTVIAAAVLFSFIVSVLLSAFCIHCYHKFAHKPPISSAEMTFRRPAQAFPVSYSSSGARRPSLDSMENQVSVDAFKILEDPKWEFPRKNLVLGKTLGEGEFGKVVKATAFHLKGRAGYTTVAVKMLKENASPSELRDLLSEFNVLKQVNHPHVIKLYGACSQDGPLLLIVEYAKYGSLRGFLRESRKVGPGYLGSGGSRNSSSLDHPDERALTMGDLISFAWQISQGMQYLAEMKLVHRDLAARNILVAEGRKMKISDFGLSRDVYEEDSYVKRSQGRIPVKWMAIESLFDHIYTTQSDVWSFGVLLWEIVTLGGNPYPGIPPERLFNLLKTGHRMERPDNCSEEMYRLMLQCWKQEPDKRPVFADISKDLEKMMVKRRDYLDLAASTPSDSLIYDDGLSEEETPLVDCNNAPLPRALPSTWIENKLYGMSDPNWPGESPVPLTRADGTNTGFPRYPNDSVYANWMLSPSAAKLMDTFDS
Procedure: as §3

FAK/PTK2 = FAK/PTK2 (Homo sapiens, UniProt Q05397); experiment: Degradation assay; type: cell-based; settings: average of duplicate measurements
Procedure: as §3

ERBB4/HER4 = ERBB4/HER4 (Homo sapiens, UniProt Q15303); experiment: Degradation assay; type: cell-based; settings: average of duplicate measurements
Procedure: as §3

LTK = LTK (Homo sapiens, UniProt P29376); experiment: Degradation assay; type: cell-based; settings: average of duplicate measurements
Procedure: as §3

CHEK2 = CHEK2 (Homo sapiens, UniProt O96017); experiment: Degradation assay; type: cell-based; settings: average of duplicate measurements
Procedure: as §3

CLK1 = CLK1 (Homo sapiens, UniProt P49759); experiment: Degradation assay; type: cell-based; settings: average of duplicate measurements
Procedure: as §3

C-MET = C-MET (Homo sapiens, UniProt P08581); experiment: Degradation assay; type: cell-based; settings: average of duplicate measurements
Chain of C-MET (P08581 25-1390): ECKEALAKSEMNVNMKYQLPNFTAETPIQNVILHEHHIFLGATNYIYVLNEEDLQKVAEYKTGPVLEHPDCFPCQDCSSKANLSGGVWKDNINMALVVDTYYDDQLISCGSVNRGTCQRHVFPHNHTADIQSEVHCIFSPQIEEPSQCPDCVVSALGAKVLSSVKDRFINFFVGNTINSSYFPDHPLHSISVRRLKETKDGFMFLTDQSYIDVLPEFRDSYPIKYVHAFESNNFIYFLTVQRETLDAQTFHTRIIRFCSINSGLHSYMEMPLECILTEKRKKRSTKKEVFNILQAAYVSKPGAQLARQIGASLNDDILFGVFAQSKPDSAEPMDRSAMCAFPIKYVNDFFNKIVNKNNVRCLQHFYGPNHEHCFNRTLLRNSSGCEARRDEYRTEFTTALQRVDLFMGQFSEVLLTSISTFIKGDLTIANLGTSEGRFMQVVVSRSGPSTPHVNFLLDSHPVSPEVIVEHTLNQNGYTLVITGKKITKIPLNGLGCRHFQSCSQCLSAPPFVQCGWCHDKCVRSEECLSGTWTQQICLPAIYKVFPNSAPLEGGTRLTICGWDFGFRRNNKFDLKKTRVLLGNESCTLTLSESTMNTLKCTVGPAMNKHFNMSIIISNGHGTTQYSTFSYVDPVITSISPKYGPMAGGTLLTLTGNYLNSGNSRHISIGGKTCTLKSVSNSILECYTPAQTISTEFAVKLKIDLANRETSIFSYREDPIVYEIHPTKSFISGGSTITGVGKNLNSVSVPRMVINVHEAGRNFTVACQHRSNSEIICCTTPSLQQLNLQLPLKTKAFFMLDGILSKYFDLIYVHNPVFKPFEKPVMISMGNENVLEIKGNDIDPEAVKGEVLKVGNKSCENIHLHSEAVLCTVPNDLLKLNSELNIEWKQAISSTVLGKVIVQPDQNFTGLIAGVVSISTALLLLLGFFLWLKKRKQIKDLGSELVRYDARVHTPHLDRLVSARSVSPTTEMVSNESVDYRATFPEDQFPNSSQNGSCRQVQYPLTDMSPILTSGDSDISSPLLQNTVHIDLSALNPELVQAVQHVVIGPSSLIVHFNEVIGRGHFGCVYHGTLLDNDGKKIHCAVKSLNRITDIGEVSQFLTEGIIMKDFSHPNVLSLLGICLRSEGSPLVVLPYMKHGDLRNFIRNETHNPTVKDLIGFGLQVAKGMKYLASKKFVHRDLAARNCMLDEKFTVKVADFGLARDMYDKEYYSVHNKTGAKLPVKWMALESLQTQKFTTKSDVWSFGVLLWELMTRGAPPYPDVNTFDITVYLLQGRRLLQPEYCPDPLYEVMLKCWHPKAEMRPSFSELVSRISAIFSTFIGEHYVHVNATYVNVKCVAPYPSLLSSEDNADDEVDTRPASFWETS
Procedure: as §3

CAMK2D = experiment: Degradation assay; type: cell-based; settings: average of duplicate measurements
Procedure: as §3

FLT3 = FLT3 (Homo sapiens, UniProt P36888); experiment: Degradation assay; type: cell-based; settings: average of duplicate measurements
Procedure: as §3

ERBB2 [5] = biological target: T1, ERBB2 (Homo sapiens, UniProt P04626); experiment: Degradation assay; type: cell-based; settings: average of duplicate measurements
T1 sequence (P04626 23-1255, species assumed): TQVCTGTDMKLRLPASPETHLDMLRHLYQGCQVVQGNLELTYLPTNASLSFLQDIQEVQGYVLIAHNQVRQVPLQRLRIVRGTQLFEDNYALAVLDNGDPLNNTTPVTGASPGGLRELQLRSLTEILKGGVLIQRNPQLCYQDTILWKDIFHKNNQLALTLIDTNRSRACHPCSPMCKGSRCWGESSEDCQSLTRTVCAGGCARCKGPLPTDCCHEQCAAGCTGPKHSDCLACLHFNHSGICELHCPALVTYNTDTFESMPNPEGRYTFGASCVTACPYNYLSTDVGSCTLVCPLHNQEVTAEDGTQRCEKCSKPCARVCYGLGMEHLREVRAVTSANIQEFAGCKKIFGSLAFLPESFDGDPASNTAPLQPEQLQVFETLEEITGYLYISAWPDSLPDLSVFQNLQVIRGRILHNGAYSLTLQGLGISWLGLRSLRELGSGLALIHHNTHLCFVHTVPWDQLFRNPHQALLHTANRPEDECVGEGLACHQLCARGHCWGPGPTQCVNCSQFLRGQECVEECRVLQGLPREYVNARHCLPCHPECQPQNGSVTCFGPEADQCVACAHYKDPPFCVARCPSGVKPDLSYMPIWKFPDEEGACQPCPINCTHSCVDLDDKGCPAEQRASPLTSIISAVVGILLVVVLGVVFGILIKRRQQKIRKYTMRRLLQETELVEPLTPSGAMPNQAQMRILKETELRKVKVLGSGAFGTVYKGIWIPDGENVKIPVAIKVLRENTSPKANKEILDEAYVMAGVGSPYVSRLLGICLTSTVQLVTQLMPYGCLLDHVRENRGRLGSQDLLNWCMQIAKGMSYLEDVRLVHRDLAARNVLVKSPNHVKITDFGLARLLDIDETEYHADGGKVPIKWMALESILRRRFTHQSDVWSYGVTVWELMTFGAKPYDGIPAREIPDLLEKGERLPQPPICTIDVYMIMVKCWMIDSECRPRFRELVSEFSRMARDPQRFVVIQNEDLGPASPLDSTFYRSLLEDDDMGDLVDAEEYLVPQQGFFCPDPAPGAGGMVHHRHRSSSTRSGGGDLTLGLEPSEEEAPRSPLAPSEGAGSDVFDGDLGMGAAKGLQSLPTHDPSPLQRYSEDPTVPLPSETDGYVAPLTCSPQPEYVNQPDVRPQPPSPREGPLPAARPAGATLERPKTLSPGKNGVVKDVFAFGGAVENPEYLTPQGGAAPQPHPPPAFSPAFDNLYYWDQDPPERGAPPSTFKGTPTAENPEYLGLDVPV
Procedure: as §3

FES = FES (Homo sapiens, UniProt P07332); experiment: Degradation assay; type: cell-based; settings: average of duplicate measurements
Procedure: as §3

[6] = tested on: Ba/F3 ROS1 (SLC34A2) D2033N; experiment: Antiproliferation assay; type: cell-based; settings: Mus musculus, BaF3; Ba/F3 cell line
Procedure: as §1, with “Crizotinib, ceritinib, brigatinib, repotrectinib, and lorlatinib were purchased from MedChem Express.” left out
as §2

[7] = tested on: Ba/F3 ROS1 (SLC34A2) G2032R; experiment: Antiproliferation assay; type: cell-based; settings: Mus musculus, BaF3; Ba/F3 cell line
Procedure: as §1, with “Crizotinib, ceritinib, brigatinib, repotrectinib, and lorlatinib were purchased from MedChem Express.” left out
as §2

[8] = tested on: Ba/F3 ROS1 (SLC34A2) G2032R-F2075 V; experiment: Antiproliferation assay; type: cell-based; settings: Mus musculus, BaF3; Ba/F3 cell line
Procedure: as §1, with “Crizotinib, ceritinib, brigatinib, repotrectinib, and lorlatinib were purchased from MedChem Express.” left out
as §2

[9] = Pharmacokinetics study in Sprague–Dawley rats; type: in vivo; settings: rat, 0.5 mg/kg iv
[10] = tested on: Ba/F3 ROS1 L2086F, S1986F/L2086F, S1986F/G2032R/L2086F; experiment: Antiproliferation assay, resistant mutations involving L2086F; type: cell-based; settings: Mus musculus, BaF3; Ba/F3 cells, summary of Table 6; read-out: potency against resistant mutations involving L2086F, S1986F/L2086F, S1986F/G2032R/L2086F
Procedure: as §2

ERBB2 [11] = biological target: T1, ERBB2; experiment: Kinase assay; type: biochemical; settings: average of duplicate measurements

IC50 (INSRR): 45 nM
IC50 [2]: 58.4 ± 11.4 nM
IC50 [3]: 0.4 ± 0.3 nM
IC50 [4]: 2.9 ± 0.5 nM
IC50 (ROS1): 0.8 nM
DC50 (ALK): 1.7 nM
DC50 (EGFR): 255 nM
DC50 (FER): 17 nM
DC50 (RET): 58 nM
DC50 (FAK/PTK2): 1.5 nM
DC50 (ERBB4/HER4): > 1000 nM
DC50 (LTK): > 1000 nM
DC50 (CHEK2): 187 nM
DC50 (CLK1): > 1000 nM
DC50 (C-MET): > 1000 nM
DC50 (CAMK2D): 264 nM
DC50 (FLT3): > 1000 nM
DC50 (ERBB2 [5]): 474 nM
DC50 (FES): 320 nM
IC50 [6]: 9.7 ± 2.6 nM
IC50 [7]: 6.3 ± 1.1 nM
IC50 [8]: 5.6 ± 0.6 nM
AUC (iv) [9]: 1736 ng·h/mL
IC50 [10]: 1.9 to 66 nM
IC50 (ERBB2 [11]): 42 nM
Structure (SMILES): COc1cc(N2CCC(N3CCN(CC4CCN(c5ccc6c(c5)CN(C5CCC(=O)NC5=O)C6=O)CC4)CC3)CC2)ccc1Nc1ncc(Cl)c(Nc2ccccc2P(C)(C)=O)n1 (stereo not drawn) [9o, 3-(5-(4-((4-(1-(4-((5-Chloro-4-((2-(dimethylphosphoryl)phenyl)amino)pyrimidin-2-yl)amino)-3-methoxyphenyl)piperidin-4-yl)piperazin-1-yl)methyl)piperidin-1-yl)-1-oxoisoindolin-2-yl)piperidine-2,6-dione]
TGI (tumor growth inhibition) ([1]; 10 mg/kg PO qd): 62%
TGI (tumor growth inhibition) ([1]; 30 mg/kg PO qd): 164%
